Assay results as given in article PMC10510108, “Studies Pertaining to the Emerging Cannabinoid Hexahydrocannabinol (HHC)” (ACS Chemical Biology, 2023).
Entries after “also recorded” stand apart in the source; their conditions may differ. Read-outs that look alike come from different tables or passages of the source.

Tests used:
[1] = molecular target: T1, human CB1 cannabinoid receptor (Homo sapiens, UniProt P21554); assay: biochemical; format: binding; settings: for nH (Hill coefficient) / Top (% inhibition of control specific binding): SI; for nH (Hill coefficient): competition curve fit; for Top (% inhibition of control specific binding): four parameter curve fit
T1 construct: host or cells: Chem-1 cells
T1 sequence (P21554 whole entry): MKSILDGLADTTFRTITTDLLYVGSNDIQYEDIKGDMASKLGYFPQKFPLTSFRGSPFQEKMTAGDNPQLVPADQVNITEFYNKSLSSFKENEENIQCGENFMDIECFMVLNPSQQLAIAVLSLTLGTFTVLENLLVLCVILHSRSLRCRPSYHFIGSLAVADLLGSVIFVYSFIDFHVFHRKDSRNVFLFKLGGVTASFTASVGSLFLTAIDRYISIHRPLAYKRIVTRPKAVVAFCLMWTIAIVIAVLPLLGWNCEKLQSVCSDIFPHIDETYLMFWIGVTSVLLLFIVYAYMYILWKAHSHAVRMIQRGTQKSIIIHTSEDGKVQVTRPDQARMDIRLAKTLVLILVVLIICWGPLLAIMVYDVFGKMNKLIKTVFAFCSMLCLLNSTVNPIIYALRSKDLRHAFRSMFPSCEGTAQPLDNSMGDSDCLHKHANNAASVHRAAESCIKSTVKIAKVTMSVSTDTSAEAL

[2] = molecular target: T2, human CB2 cannabinoid receptor (Homo sapiens, UniProt P34972); assay: biochemical; format: binding; settings: for nH (Hill coefficient): competition curve fit; for Top (% inhibition of control specific binding): four parameter curve fit
T2 construct: host or cells: CHO cells
T2 sequence (P34972 whole entry): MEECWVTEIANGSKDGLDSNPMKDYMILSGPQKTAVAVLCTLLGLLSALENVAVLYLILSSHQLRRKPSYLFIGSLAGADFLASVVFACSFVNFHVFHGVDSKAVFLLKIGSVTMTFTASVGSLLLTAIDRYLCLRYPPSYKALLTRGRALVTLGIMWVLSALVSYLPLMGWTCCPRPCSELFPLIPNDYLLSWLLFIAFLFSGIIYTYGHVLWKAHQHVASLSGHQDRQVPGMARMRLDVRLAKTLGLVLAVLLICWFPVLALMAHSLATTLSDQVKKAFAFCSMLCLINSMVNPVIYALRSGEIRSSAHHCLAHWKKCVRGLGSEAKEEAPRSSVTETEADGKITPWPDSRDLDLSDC

human CB1 receptor = molecular target: T3, human CB1 receptor (Homo sapiens, UniProt P21554); assay: cell-based; settings: for EC50: cAMP HTRF, transfected CHO cells, two replicate experiments, error = standard deviation
T3 construct: host or cells: CHO cells
T3 sequence (P21554 whole entry): as the sequence (P21554 whole entry) above

human CB2 receptor = molecular target: T4, human CB2 receptor (Homo sapiens, UniProt P34972); assay: cell-based; settings: for EC50: cAMP HTRF, transfected CHO cells, two replicate experiments, error = standard deviation
T4 construct: host or cells: CHO cells
T4 sequence (P34972 whole entry): as the sequence (P34972 whole entry) above

[3] = [3H]WIN 55212-2 displacement, transfected CHO cell lysate, two replicate experiments, error = standard deviation, read-out: Ki (CB2)

Compound	% inhibition of control specific binding ([1]; Log[M] –5.48, 1st replicate) [%]	% inhibition of control specific binding ([1]; Log[M] –5.48, 2nd replicate) [%]	% inhibition of control specific binding ([1]; Log[M] –6.43, 1st replicate) [%]	% inhibition of control specific binding ([1]; Log[M] –6.43, 2nd replicate) [%]	% inhibition of control specific binding ([1]; Log[M] –6.91, 1st replicate) [%]	% inhibition of control specific binding ([1]; Log[M] –6.91, 2nd replicate) [%]	% inhibition of control specific binding ([1]; Log[M] –7.39, 1st replicate)	% inhibition of control specific binding ([2]; Log[M] –5.48, 1st replicate) [%]	% inhibition of control specific binding ([2]; Log[M] –5.48, 2nd replicate) [%]	% inhibition of control specific binding ([2]; Log[M] –6.43, 1st replicate) [%]	% inhibition of control specific binding ([2]; Log[M] –6.43, 2nd replicate) [%]	% inhibition of control specific binding ([2]; Log[M] –6.91, 1st replicate) [%]	% inhibition of control specific binding ([2]; Log[M] –6.91, 2nd replicate) [%]	% inhibition of control specific binding ([2]; Log[M] –7.39, 1st replicate) [%]	% inhibition of control specific binding ([2]; Log[M] –7.39, 2nd replicate) [%]	% inhibition of control specific binding ([2]; Log[M] –7.86, 1st replicate) [%]	% inhibition of control specific binding ([2]; Log[M] –7.86, 2nd replicate) [%]	nH (Hill coefficient) ([2]; SI)	Top (% inhibition of control specific binding) ([2]; SI)	agonist character at CB2 (human CB2 receptor; functional assay)	other results
CCCCCc1cc(O)c2c(c1)OC(C)(C)[C@@H]1CC[C@@H](C)C[C@@H]21 [4a, (9R)-HHC]	112.10	113.60	95.20	100.00	82.50	83.30	50.10%	98.00	97.20	96.90	93.60	86.90	84.70	64.90	67.50	47.90	41.40	1.1	99	partial agonists; also recorded: partial CB1 and CB2 receptor agonist activity	Ki [1]: 15 nM; % inhibition of control specific binding ([1]; Log[M] –7.39, 2nd replicate): 52.90%; % inhibition of control specific binding ([1]; Log[M] –7.86, 1st replicate): 27.40%; % inhibition of control specific binding ([1]; Log[M] –7.86, 2nd replicate): 29.00%; nH (Hill coefficient) [1]: 1.1; Top (% inhibition of control specific binding) [1]: 111; selectivity for CB2 (radioligand binding) [2]: 1.2 x; Ki [2, 3]: 13 nM; selectivity for CB1 (functional assay) (human CB1 receptor): 1.8 x; EC50 (human CB1 receptor): 3.4 nM; agonist character at CB1 (human CB1 receptor; functional assay): partial agonists; also recorded: partial CB1 and CB2 receptor agonist activity; increase in potency compared to 4b, CB1 (human CB1 receptor; functional assay): 17 fold; selectivity for CB2 (functional activity) (human CB2 receptor): 0.55 x; EC50 (human CB2 receptor): 6.2 nM; increase in potency compared to 4b, CB2 (human CB2 receptor; functional assay): 9 fold
CCCCCc1cc(O)c2c(c1)OC(C)(C)[C@@H]1CC[C@H](C)C[C@@H]21 [4b, (9S)-HHC]	88.80	95.80	35.70	35.70	8.70	5.50	–4.50%	88.30	88.00	62.60	61.40	41.60	41.40	15.80	16.00	4.40	6.70	0.7	102	partial agonists; also recorded: partial CB1 and CB2 receptor agonist activity	% inhibition of control specific binding ([1]; Log[M] –7.39, 2nd replicate): 0.20%; % inhibition of control specific binding ([1]; Log[M] –7.86, 1st replicate): –9.00%; % inhibition of control specific binding ([1]; Log[M] –7.86, 2nd replicate): –6.10%; nH (Hill coefficient) [1]: 1.1; Top (% inhibition of control specific binding) [1]: 106; Ki ([1]; [3H]CP 55940 displacement, transfected Chem-1 cell lysate, two replicate experiments, error = standard deviation, read-out: Ki (CB1)): 176 nM; Ki ([2]; SI, curve fitted to mean replicate values, Cheng Prusoff, read-out: Ki): 110 nM; Ki [2, 3]: 105 nM; selectivity for CB2 (radioligand binding) ([2]; from Ki at CB1 and CB2): 1.7 x; selectivity for CB1 (functional assay) (human CB1 receptor; CB1 versus CB2, from EC50): no significant selectivity; EC50 (human CB1 receptor): 57 nM; agonist character at CB1 (human CB1 receptor; functional assay): partial agonists; also recorded: partial CB1 and CB2 receptor agonist activity; EC50 (human CB2 receptor): 56 nM; selectivity for CB2 (functional activity) (human CB2 receptor; from EC50 at CB1 and CB2): 1.0 x
CCCCCc1cc(O)c2c(c1)OC(C)(C)[C@@H]1CCC(C)=C[C@@H]21 [compound 1, Δ^9-trans-tetrahydrocannabinol, reference compound]	–	–	–	–	–	–	–	97.00	96.20	98.10	98.20	88.60	89.90	74.30	67.60	50.30	51.20	1.0	100	partial agonists; also recorded: partial CB1 and CB2 receptor agonist activity	–
